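Five concentrations, 48 hours, 96-well plates. TGI marks complete inhibition of growth.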
How the values were obtained:
Experiment in all cases: NCI tumour cell line growth inhibition, 48 h
786-0 renal = tested on: 786-0 renal
BT-549 breast = tested on: BT-549 breast
DU-145 prostate = tested on: DU-145 prostate
HCT-116 colon = tested on: HCT-116 colon
HCT-15 colon = tested on: HCT-15 colon
HL-60(TB) leukemia = tested on: HL-60(TB) leukemia
IGROV1 ovarian = tested on: IGROV1 ovarian
M14 melanoma = tested on: M14 melanoma
MALME-3M melanoma = tested on: MALME-3M melanoma
NCI/ADR-RES ovarian = tested on: NCI/ADR-RES ovarian
OVCAR-4 ovarian = tested on: OVCAR-4 ovarian
OVCAR-8 ovarian = tested on: OVCAR-8 ovarian
PC-3 prostate = tested on: PC-3 prostate
RPMI-8226 leukemia = tested on: RPMI-8226 leukemia
SNB-75 CNS = tested on: SNB-75 CNS
T-47D breast = tested on: T-47D breast
TK-10 renal = tested on: TK-10 renal
U251 CNS = tested on: U251 CNS
UACC-257 melanoma = tested on: UACC-257 melanoma
UACC-62 melanoma = tested on: UACC-62 melanoma

SMILES	TGI (786-0 renal) [µM]	TGI (BT-549 breast) [µM]	TGI (DU-145 prostate) [µM]	TGI (HCT-116 colon) [µM]	TGI (HCT-15 colon) [µM]	TGI (HL-60(TB) leukemia) [µM]	TGI (IGROV1 ovarian) [µM]	TGI (M14 melanoma) [µM]	TGI (MALME-3M melanoma) [µM]	TGI (NCI/ADR-RES ovarian) [µM]	TGI (OVCAR-4 ovarian) [µM]	TGI (OVCAR-8 ovarian) [µM]	TGI (PC-3 prostate) [µM]	TGI (RPMI-8226 leukemia) [µM]	TGI (SNB-75 CNS) [µM]	TGI (T-47D breast) [µM]	TGI (TK-10 renal) [µM]	TGI (U251 CNS) [µM]	TGI (UACC-257 melanoma) [µM]	TGI (UACC-62 melanoma) [µM]
COc1cc(C=Nc2ccc(Oc3ccc(Cl)cc3)c(Cl)c2)cc(OC)c1OC	29.6	38	38.6	29.2	39.2	48.6	67.1	58.2	35.8	48.8	62.3	62.1	36.2	> 100	57.9	39.7	> 100	40.8	47.7	30.4
CCN1CCc2sc3[nH]c(=S)n(C)c(=O)c3c2C1	> 100	> 100	> 100	> 100	> 100	1.83	> 100	> 100	> 100	> 100	> 100	> 100	> 100	> 100	> 100	> 100	> 100	> 100	> 100	> 100
COc1cc(OC)cc(N(C)Cc2cnc3nc(N)nc(N)c3c2C)c1	> 100	> 100	> 100	> 100	> 100	> 100	> 100	55.4	> 100	> 100	> 100	> 100	> 100	> 100	> 100	> 100	> 100	> 100	> 100	> 100
COc1ccc(/C=N/NC(=O)c2ccccc2Nc2ccccc2C(=O)N/N=C/c2ccc(OC)c(OC)c2)cc1OC	> 100	> 100	> 100	> 100	> 100	> 100	> 100	> 100	> 100	> 100	> 100	> 100	> 100	> 100	> 100	> 100	> 100	> 100	> 100	> 100
Fc1ccccc1N=c1oc2ccc(Br)cc2cc1-c1nc2ccccc2[nH]1	8.5	26.7	> 42.5	> 31.8	> 100	> 100	> 42.1	35.8	14.9	65.7	> 37.3	> 36.5	> 23.4	> 85.6	4.74	> 100	17.2	20.1	> 47.5	51.5
COc1cc(C2c3cc4c(c(O)c3C(=O)C3CCC(=O)N32)OCO4)cc(OC)c1OC (stereo unspecified)	> 100	92.5	> 100	> 100	> 100	> 100	> 100	> 100	> 100	> 100	> 100	> 100	> 100	> 100	> 100	> 100	> 100	> 100	> 100	> 100
CC(C)NC(=O)OCc1c(COC(=O)NC(C)C)c(-c2ccc[n+](COC(=O)C3CCCCC3)c2)n2c1CCC2	> 100	> 100	> 100	> 100	> 100	> 100	> 100	> 100	> 100	> 100	> 100	> 100	> 100	> 100	> 100	> 100	> 100	> 100	> 100	87.4
COc1cc2c(cc1C)NC(=O)/C2=C/c1c(Cl)n(C)c2ccccc12	30.7	24.4	23.6	21.9	20.5	8.94	17.1	48.1	22.5	24.6	25	35.8	29.6	> 100	13.4	19.3	30.7	28	34.7	26.8
CC(=O)CC(=O)Nn1c(-c2cccs2)nc2ccc(I)cc2c1=O	> 100	> 71	> 96.6	> 100	> 100	> 100	> 100	> 100	> 93.2	> 94.4	> 100	> 100	> 100	> 100	> 100	> 100	> 100	> 100	> 100	> 85
CCOc1c(OC)cc(CNNc2nccs2)cc1OC	> 100	> 100	> 100	> 100	> 100	> 100	> 100	> 100	> 100	> 100	> 100	> 100	> 100	> 100	> 100	> 100	> 100	> 100	> 100	–
C[C@H]1C(=O)C2=C[C@H]1CCC(=O)[C@]1(C)CCCC(C)(C)[C@H]1C[C@H]2O	32.5	94.5	96.8	> 100	34.3	39.7	> 100	25.9	43.5	74.2	> 100	35	> 100	34.2	82.8	32.9	28.7	28.4	83.6	> 100
Nc1c2ccccc2nc2ccc(C(=O)Nc3ccc(S(N)(=O)=O)cc3)cc12	> 100	> 100	> 100	> 100	> 100	> 100	> 100	> 100	> 100	> 100	> 100	> 100	> 100	> 100	> 100	> 100	> 100	> 100	> 100	> 100
CN(C)/C=C/c1ccnc2c1C(=O)c1ccccc1C2=O	73.6	14.9	3.41	20.9	31.5	> 55.5	35.2	4.16	5.09	57.4	66	59.1	56.7	39.3	16.1	> 85	> 100	49.7	6.19	2.9
COC[C@@H](N=Cc1ccc(OC)cc1)C(C)C	> 100	> 100	> 100	> 100	> 100	–	> 100	> 100	> 100	> 100	> 100	> 100	> 100	> 100	> 100	> 100	> 100	> 100	> 100	> 100
CN(C)CCCNc1ccc2nnn3c4ccc([N+](=O)[O-])cc4c(=O)c1c23	13	19.2	12.1	12.3	7.77	11.3	13.3	8.31	14.5	3.09	3.92	5.38	11.7	7.31	8.55	27.9	7.95	5.16	16.7	14.4
C[N+]12C=CC=C1C(N1CCCC1)c1sc(-c3ccc(Cl)cc3)cc12 (stereo unspecified)	28.8	22	32.6	29.6	90.5	–	39	30.9	31.1	> 100	33.4	33.5	29.9	57.7	25.7	35.4	40.7	24.5	28.9	28.4
N#Cc1c(C#N)c(-c2ccco2)n(/N=C/c2ccco2)c1N	> 100	> 100	> 100	> 100	> 100	> 100	> 100	> 100	> 100	> 100	> 100	66.2	> 100	> 100	40	> 100	> 100	60.3	> 100	> 100
Cc1ccc(-c2cn3c(nc4ccccc43)c(C)n2)cc1	> 75.5	> 89.4	> 100	> 100	> 100	> 100	> 31.6	> 100	> 67.8	> 100	> 100	> 100	> 100	> 100	> 87.6	> 30.1	> 100	> 87.7	> 100	> 81.3
O=C1NC(N2CCCC(CO)C2)=N/C1=C\c1ccc(O)cc1 (stereo unspecified)	> 100	> 100	> 100	> 100	> 100	> 100	> 100	> 100	> 100	> 100	> 100	> 100	> 100	> 100	> 100	> 100	> 100	> 100	> 100	> 100
O=C1c2c(ccc3c2CCCC3)CC12Cc1ccccc1C2	> 100	> 100	> 100	26.1	> 49.8	38.8	> 100	> 100	34.9	> 100	> 100	> 100	> 100	45.5	> 100	> 100	> 100	> 100	54	> 100
O=C1N[C@@H](c2c[nH]c3ccc(Br)cc23)C(=O)N[C@H]1c1c[nH]c2ccc(Br)cc12	25.6	35.4	27.3	21.8	37	26.6	29.4	21.2	28.8	> 100	24	26	16.1	38.2	9.03	36.4	21.7	21.9	26.8	23.2
CCCCCCc1cc2cc(C(=O)Nc3cccc(C(F)(F)F)c3)c(=N)oc2cc1O	6.27	6.1	3.3	4.57	4.36	6.98	11.1	6.18	6.2	7.42	14.3	3.72	15.1	> 20.3	3.01	1.04	46.6	3.5	8.95	6.02
O=C(C(=O)n1ccc2ccccc21)c1c[nH]c2ccccc12	> 10	> 10	> 10	> 10	> 10	> 10	> 10	> 10	> 10	> 10	> 10	> 10	> 10	> 10	> 10	> 10	> 10	> 10	> 10	> 10
COc1ccc(N=Nc2ccc3oc(=O)c(C(=O)Nc4ccc(OC)cc4)cc3c2)cc1	44.5	39	53.9	23.8	45.2	30.8	44	43.5	52.7	51.7	75.3	37.8	43.1	67.2	54.3	29.8	> 100	30	73.9	–
